30 compounds from patent publication US11407767B2, “Heterocyclyl substituted pyrrolopyridines that are inhibitors of the CDK12 kinase” (The University of Nottingham, priority 2017, dated 2022) can be followed below.

Assay [1] addresses CDK12/CycK (Homo sapiens, UniProt Q9NYV4). In words: Inhibition of CDK12 (ADP-Glo kinase assay). Type of assay: biochemical. Conditions: 60 nM CDK12/CycK, 30 minutes pre-incubation, 1 μM ATP, 0.5 μM RBER-IRStide substrate, 1 h at 25° C., read-out: CDK12/cyclin K IC50. A digest of the protocol:
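Compounds pre-incubated 30 min with 60 nM CDK12/CycK in HEPES pH 7.5 buffer with Mg2+/Mn2+, 1% DMSO final. Reaction started with 1 μM ATP and 0.5 μM RBER-IRStide, run 1 h at 25 °C; ADP-Glo luminescence, no-kinase blank subtracted, IC50 from sigmoidal fit of % inhibition.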
For orientation: ADP-Glo first removes unused ATP, then detects ADP through luciferase.

Assay [2] has as its system DM1 fibroblasts. In words: Nuclear foci assay. Type of assay: cell-based. Conditions: Fibroblast; DM1 fibroblasts treated for 24 hours, 11 point dilution 20 μM-19 nM, in situ hybridisation with cy3 labelled CAG10 probe. As to the method:
DM1 fibroblasts were treated with compounds in an 11 point dilution series from 20 μM-19 nM for 24 hours. Following treatment, fluorescent in situ hybridisation was performed with a cy3 labelled CAG10 probe, to visualize nuclear foci and cells were analysed on a Molecular Devices plate reader with customised MetaExpress software (Ketley, A. et al. (2014). Hum Mol Genet, 23: 1551-1562). Compounds that reduced nuclear foci in a concentration dependent manner, compared to DMSO treated cells were identified.

Sequence of CDK12/CycK (Q9NYV4 whole entry): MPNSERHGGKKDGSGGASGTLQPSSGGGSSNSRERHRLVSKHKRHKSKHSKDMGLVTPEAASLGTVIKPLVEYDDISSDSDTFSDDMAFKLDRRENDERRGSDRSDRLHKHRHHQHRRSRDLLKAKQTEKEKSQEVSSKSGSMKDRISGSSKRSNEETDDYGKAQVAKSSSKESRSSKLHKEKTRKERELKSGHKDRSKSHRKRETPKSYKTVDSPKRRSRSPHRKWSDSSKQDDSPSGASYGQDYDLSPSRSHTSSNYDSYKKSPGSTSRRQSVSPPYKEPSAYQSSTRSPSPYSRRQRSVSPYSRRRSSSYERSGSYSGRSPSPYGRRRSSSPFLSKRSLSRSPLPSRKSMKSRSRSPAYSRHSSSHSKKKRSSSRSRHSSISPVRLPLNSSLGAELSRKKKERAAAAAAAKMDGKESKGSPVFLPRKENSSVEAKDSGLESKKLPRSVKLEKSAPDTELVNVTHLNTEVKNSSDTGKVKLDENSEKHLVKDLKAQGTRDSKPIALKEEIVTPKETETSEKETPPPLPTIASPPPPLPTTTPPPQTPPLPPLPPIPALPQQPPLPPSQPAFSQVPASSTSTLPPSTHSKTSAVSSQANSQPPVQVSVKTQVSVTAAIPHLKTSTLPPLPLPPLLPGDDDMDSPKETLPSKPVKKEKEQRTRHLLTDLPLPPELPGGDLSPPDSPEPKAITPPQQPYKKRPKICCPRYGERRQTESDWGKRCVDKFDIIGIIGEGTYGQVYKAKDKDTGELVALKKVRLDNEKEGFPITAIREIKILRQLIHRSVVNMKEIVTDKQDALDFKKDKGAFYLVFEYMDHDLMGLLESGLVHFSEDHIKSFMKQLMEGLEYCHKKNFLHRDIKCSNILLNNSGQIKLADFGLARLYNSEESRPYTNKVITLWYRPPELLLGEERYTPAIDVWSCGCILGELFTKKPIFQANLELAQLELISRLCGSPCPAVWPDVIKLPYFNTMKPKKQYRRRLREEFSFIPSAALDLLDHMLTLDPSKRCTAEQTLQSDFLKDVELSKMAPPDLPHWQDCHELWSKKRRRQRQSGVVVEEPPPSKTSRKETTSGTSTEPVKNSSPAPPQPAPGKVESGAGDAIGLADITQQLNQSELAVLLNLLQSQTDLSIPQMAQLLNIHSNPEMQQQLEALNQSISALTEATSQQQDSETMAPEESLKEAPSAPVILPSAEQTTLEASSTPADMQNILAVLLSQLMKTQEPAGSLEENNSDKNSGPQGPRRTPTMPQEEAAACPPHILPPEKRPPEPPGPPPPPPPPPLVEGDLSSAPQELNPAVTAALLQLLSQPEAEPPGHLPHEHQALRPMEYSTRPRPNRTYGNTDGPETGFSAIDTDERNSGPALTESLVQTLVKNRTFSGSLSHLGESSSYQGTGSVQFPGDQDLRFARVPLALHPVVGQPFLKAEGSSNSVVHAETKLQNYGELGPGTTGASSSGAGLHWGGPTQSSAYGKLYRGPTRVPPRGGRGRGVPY
Sequence of CDK12/CycK (O75909 whole entry partner): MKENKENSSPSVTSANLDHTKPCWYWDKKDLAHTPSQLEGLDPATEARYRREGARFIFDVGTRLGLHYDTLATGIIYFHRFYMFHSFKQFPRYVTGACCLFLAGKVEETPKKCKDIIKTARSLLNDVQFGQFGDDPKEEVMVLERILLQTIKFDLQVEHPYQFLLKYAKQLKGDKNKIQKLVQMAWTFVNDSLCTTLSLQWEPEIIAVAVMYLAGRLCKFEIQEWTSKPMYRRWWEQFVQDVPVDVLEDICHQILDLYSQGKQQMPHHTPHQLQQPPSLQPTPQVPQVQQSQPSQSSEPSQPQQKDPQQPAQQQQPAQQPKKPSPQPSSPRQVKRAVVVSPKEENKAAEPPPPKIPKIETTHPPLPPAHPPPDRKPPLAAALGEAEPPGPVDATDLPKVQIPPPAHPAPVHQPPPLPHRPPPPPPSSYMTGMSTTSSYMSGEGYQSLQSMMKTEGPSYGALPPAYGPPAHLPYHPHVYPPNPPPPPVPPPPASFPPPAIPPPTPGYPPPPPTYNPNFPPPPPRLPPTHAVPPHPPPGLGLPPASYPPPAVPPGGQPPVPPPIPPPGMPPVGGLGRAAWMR

Consider `C=CC(=O)N1CCC1C(=O)NCCc1cc2c(-c3cnn4ncccc34)ccnc2[nH]1` (single isomer, unassigned) [Example 39], for which the results for the IC50 in assay [1] and in assay [2] were under 100 nM and under 1000 nM, respectively. Regarding `NC(=O)c1cc2c(-c3cnn4ncccc34)ccnc2[nH]1` [Example 6, 4-(Pyrazolo[1,5-b]pyridazin-3-yl)-1H-pyrrolo[2,3-b]pyridine-2-carboxamide], the IC50 in assay [1] lay in the range of 100 to 1000 nM; in assay [2], 1000 to 10000 nM. In the same order, the values of `CNC(=O)c1cc2c(-c3cnn4ncccc34)ccnc2[nH]1` [Example 7, N-Methyl-4-(pyrazolo[1,5-b]pyridazin-3-yl)-1H-pyrrolo[2,3-b]pyridine-2-carboxamide] are 100 to 1000 nM and 1000 to 10000 nM. In the same order, the values of `c1ccc(Cc2cc3c(-c4cnn5ncccc45)ccnc3[nH]2)cc1` [Example 10, 3-(2-Benzyl-1H-pyrrolo[2,3-b]pyridin-4-yl)pyrazolo[1,5-b]pyridazine] are 1000 to 30000 nM and 10000 to 100000 nM. In the same order, the values of `OCc1cc2c(-c3cnn4ncccc34)ccnc2[nH]1` [Example 11, (4-(Pyrazolo[1,5-b]pyridazin-3-yl)-1H-pyrrolo[2,3-b]pyridin-2-yl)methanol] are 100 to 1000 nM and 1000 to 10000 nM. With `c1cc(-c2ccc3cn[nH]c3c2)c2cc[nH]c2n1` [Example 20, 6-(1H-Pyrrolo[2,3-b]pyridin-4-yl)-1H-indazole], the IC50 in assay [1] was in the range of 100 to 1000 nM; in assay [2] it was 10000 to 100000 nM.

`c1cc(-c2ccc3[nH]nnc3c2)c2cc[nH]c2n1` [Example 21, 5-(1H-Pyrrolo[2,3-b]pyridin-4-yl)-1H-benzo[d][1,2,3]triazole]: the results for the IC50 in assay [1] and in assay [2] were 1000 to 30000 nM and 10000 to 100000 nM, respectively.

Take `COc1ccc2c(-c3ccnc4[nH]ccc34)cnn2n1` [Example 22, 6-Methoxy-3-(1H-pyrrolo[2,3-b]pyridin-4-yl)pyrazolo[1,5-b]pyridazine]: the IC50 in assay [1] was 1000 to 30000 nM; in assay [2], 10000 to 100000 nM. The corresponding values for `Cc1cc2c(-c3cnn4ncccc34)ccnc2[nH]1` [Example 27, 3-(2-Methyl-1H-pyrrolo[2,3-b]pyridin-4-yl)pyrazolo[1,5-b]pyridazine] are 100 to 1000 nM and under 1000 nM.

For `c1cnn2ncc(-c3ccnc4[nH]ccc34)c2c1` [Example 28, 3-(1H-Pyrrolo[2,3-b]pyridin-4-yl)pyrazolo[1,5-b]pyridazine], the IC50 was 100 to 1000 nM in assay [1] and under 1000 nM in assay [2]. In the same order, the values of `C=CC(=O)N1CCC[C@H]1C(=O)NCCc1cc2c(-c3cnn4ncccc34)ccnc2[nH]1` [Example 32, (S)-1-Acryloyl-N-(2-(4-(pyrazolo[1,5-b]pyridazin-3-yl)-1H-pyrrolo[2,3-b]pyridin-2-yl)ethyl)pyrrolidine-2-carboxamide] are under 100 nM and under 1000 nM. On to `C=CC(=O)N1CCC[C@@H]1C(=O)NCCc1cc2c(-c3cnn4ncccc34)ccnc2[nH]1` [Example 33, (R)-1-Acryloyl-N-(2-(4-(pyrazolo[1,5-b]pyridazin-3-yl)-1H-pyrrolo[2,3-b]pyridin-2-yl)ethyl)pyrrolidine-2-carboxamide], for which the IC50 in assay [1] is under 100 nM; in assay [2] it was under 1000 nM. The corresponding values for `C=CC(=O)N1CCC[C@@H](C(=O)NCCc2cc3c(-c4cnn5ncccc45)ccnc3[nH]2)C1` [Example 34, (R)-1-Acryloyl-N-(2-(4-(pyrazolo[1,5-b]pyridazin-3-yl)-1H-pyrrolo[2,3-b]pyridin-2-yl)ethyl)piperidine-3-carboxamide] are under 100 nM and 1000 to 10000 nM. Turning to `C=CC(=O)N1CCC[C@H](C(=O)NCCc2cc3c(-c4cnn5ncccc45)ccnc3[nH]2)C1` [Example 35, (S)-1-acryloyl-N-(2-(4-(pyrazolo[1,5-b]pyridazin-3-yl)-1H-pyrrolo[2,3-b]pyridin-2-yl)ethyl)piperidine-3-carboxamide], the IC50 in assay [1] was under 100 nM; in assay [2], under 1000 nM. As for `C=CC(=O)Nc1cccc(C(=O)NCCc2cc3c(-c4cnn5ncccc45)ccnc3[nH]2)c1` [Example 36, 3-Acrylamido-N-(2-(4-(pyrazolo[1,5-b]pyridazin-3-yl)-1H-pyrrolo[2,3-b]pyridin-2-yl)ethyl)benzamide], the IC50 in assay [1] is under 100 nM; in assay [2], under 1000 nM.

As for `C=CC(=O)N1CC(C(=O)NCCc2cc3c(-c4cnn5ncccc45)ccnc3[nH]2)C1` [Example 37, 1-Acryloyl-N-(2-(4-(pyrazolo[1,5-b]pyridazin-3-yl)-1H-pyrrolo[2,3-b]pyridin-2-yl)ethyl)azetidine-3-carboxamide], the IC50 in assay [1] was under 100 nM; in assay [2] it was 1000 to 10000 nM. The corresponding values for `CC(C)=CC(=O)N1CCC[C@H]1C(=O)NCCc1cc2c(-c3cnn4ncccc34)ccnc2[nH]1` [Example 42, (S)-1-(3-Methylbut-2-enoyl)-N-(2-(4-(pyrazolo[1,5-b]pyridazin-3-yl)-1H-pyrrolo[2,3-b]pyridin-2-yl)ethyl)pyrrolidine-2-carboxamide] are 100 to 1000 nM and 1000 to 10000 nM. With `C=C(C)C(=O)N1CCC[C@H]1C(=O)NCCc1cc2c(-c3cnn4ncccc34)ccnc2[nH]1` [Example 43, (S)-1-Methacryloyl-N-(2-(4-(pyrazolo[1,5-b]pyridazin-3-yl)-1H-pyrrolo[2,3-b]pyridin-2-yl)ethyl)pyrrolidine-2-carboxamide], the results for the IC50 in assay [1] and in assay [2] were 1000 to 30000 nM and 10000 to 100000 nM, respectively. Turning to `C=CC(=O)N1CCC[C@H]1C(=O)N1CCC(c2cc3c(-c4cnn5ncccc45)ccnc3[nH]2)CC1` [Example 194, (S)-1-(2-(4-(4-(Pyrazolo[1,5-b]pyridazin-3-yl)-1H-pyrrolo[2,3-b]pyridin-2-yl)piperidine-1-carbonyl)pyrrolidin-1-yl)prop-2-en-1-one], the IC50 in assay [1] was under 100 nM.

Turning to `C=CC(=O)N1CCC[C@@H]1C(=O)N1CCC(c2cc3c(-c4cnn5ncccc45)ccnc3[nH]2)CC1` [Example 195, (R)-1-(2-(4-(4-(pPyrazolo[1,5-b]pyridazin-3-yl)-1H-pyrrolo[2,3-b]pyridin-2-yl)piperidine-1-carbonyl)pyrrolidin-1-yl)prop-2-en-1-one], the IC50 in assay [1] was under 100 nM. Consider `C=CC(=O)N1CCC2(CCCN(Cc3cc4c(-c5cnn6ncccc56)ccnc4[nH]3)C2)C1` (stereo not drawn) [Example 198, 1-(7-((4-(Pyrazolo[1,5-b]pyridazin-3-yl)-1H-pyrrolo[2,3-b]pyridin-2-yl)methyl)-2,7-diazaspiro[4.5]decan-2-yl)prop-2-en-1-one], for which the IC50 in assay [1] was in the range of 1000 to 30000 nM. On the same count and under the same terms, then `C=CC(=O)NCC1CCN(Cc2cc3c(-c4cnn5ncccc45)ccnc3[nH]2)C1` (stereo not drawn) [Example 199, N-((1-((4-(Pyrazolo[1,5-b]pyridazin-3-yl)-1H-pyrrolo[2,3-b]pyridin-2-yl)methyl)pyrrolidin-3-yl)methyl)acrylamide], with 1000 to 30000 nM; and `N#CCC(=O)N1CCC[C@H]1C(=O)NCCc1cc2c(-c3cnn4ncccc34)ccnc2[nH]1` [Example 201, (S)-1-(2-Cyanoacetyl)-N-(2-(4-(pyrazolo[1,5-b]pyridazin-3-yl)-1H-pyrrolo[2,3-b]pyridin-2-yl)ethyl)pyrrolidine-2-carboxamide], with 100 to 1000 nM.

`CC(C)=C(C#N)C(=O)N1CCC[C@H]1C(=O)NCCc1cc2c(-c3cnn4ncccc34)ccnc2[nH]1` [Example 202, (S)-1-(2-Cyano-3-methylbut-2-enoyl)-N-(2-(4-(pyrazolo[1,5-b]pyridazin-3-yl)-1H-pyrrolo[2,3-b]pyridin-2-yl)ethyl)pyrrolidine-2-carboxamide]: the IC50 in assay [1] is 1000 to 30000 nM.

As to `C=CC(=O)N1CCC[C@H]1C(=O)N[C@H]1C[C@@H](c2cc3c(-c4cnn5ncccc45)ccnc3[nH]2)C1` [Example 205, (S)-1-Acryloyl-N-((1 S,3R)-3-(4-(pyrazolo[1,5-b]pyridazin-3-yl)-1H-pyrrolo[2,3-b]pyridin-2-yl)cyclobutyl)pyrrolidine-2-carboxamide], the IC50 in assay [1] is under 100 nM.

Take `C=CC(=O)N1CCC[C@H](C(=O)N2CCC(c3cc4c(-c5cnn6ncccc56)ccnc4[nH]3)C2)C1` (stereo partly drawn) [Example 206, 1-((3S)-3-(3-(4-(Pyrazolo[1,5-b]pyridazin-3-yl)-1H-pyrrolo[2,3-b]pyridin-2-yl)pyrrolidine-1-carbonyl)piperidin-1-yl)prop-2-en-1-one]: the IC50 in assay [1] is under 100 nM. As for `C=CC(=O)N1CCN(C(=O)/C=C/c2cc3c(-c4cnn5ncccc45)ccnc3[nH]2)CC1` [Example 209, (E)-1-(4-Acryloylpiperazin-1-yl)-3-(4-(pyrazolo[1,5-b]pyridazin-3-yl)-1H-pyrrolo[2,3-b]pyridin-2-yl)prop-2-en-1-one], the IC50 in assay [1] is under 100 nM. Still for that read-out and setting: then `C=CC(=O)NC1(C(=O)NCCCc2cc3c(-c4cnn5ncccc45)ccnc3[nH]2)CC1` [Example 214, 1-Acrylamido-N-(3-(4-(pyrazolo[1,5-b]pyridazin-3-yl)-1H-pyrrolo[2,3-b]pyridin-2-yl)propyl)cyclopropane-1-carboxamide], with under 100 nM.

As to `C=CC(=O)Nc1cccc(C(=O)NCCCc2cc3c(-c4cnn5ncccc45)ccnc3[nH]2)c1` [Example 215, 3-Acrylamido-N-(3-(4-(pyrazolo[1,5-b]pyridazin-3-yl)-1H-pyrrolo[2,3-b]pyridin-2-yl)propyl)benzamide], the IC50 in assay [1] was under 100 nM.

Regarding `C=CC(=O)N1CCC[C@H]1C(=O)NCCCc1cc2c(-c3cnn4ncccc34)ccnc2[nH]1` [Example 216, (S)-1-Acryloyl-N-(3-(4-(pyrazolo[1,5-b]pyridazin-3-yl)-1H-pyrrolo[2,3-b]pyridin-2-yl)propyl)pyrrolidine-2-carboxamide], in assay [1], the IC50 is under 100 nM.
